Source: the Kinase Knowledgebase extract (Sharma et al. 2016)

Key:
CDK2 = CDK2 (UniProt P24941); experiment: Enzyme Assay
EGFR = EGFR (UniProt P00533); conditions: concentration not given here
EGFR, sequence (P00533 whole entry, looked up): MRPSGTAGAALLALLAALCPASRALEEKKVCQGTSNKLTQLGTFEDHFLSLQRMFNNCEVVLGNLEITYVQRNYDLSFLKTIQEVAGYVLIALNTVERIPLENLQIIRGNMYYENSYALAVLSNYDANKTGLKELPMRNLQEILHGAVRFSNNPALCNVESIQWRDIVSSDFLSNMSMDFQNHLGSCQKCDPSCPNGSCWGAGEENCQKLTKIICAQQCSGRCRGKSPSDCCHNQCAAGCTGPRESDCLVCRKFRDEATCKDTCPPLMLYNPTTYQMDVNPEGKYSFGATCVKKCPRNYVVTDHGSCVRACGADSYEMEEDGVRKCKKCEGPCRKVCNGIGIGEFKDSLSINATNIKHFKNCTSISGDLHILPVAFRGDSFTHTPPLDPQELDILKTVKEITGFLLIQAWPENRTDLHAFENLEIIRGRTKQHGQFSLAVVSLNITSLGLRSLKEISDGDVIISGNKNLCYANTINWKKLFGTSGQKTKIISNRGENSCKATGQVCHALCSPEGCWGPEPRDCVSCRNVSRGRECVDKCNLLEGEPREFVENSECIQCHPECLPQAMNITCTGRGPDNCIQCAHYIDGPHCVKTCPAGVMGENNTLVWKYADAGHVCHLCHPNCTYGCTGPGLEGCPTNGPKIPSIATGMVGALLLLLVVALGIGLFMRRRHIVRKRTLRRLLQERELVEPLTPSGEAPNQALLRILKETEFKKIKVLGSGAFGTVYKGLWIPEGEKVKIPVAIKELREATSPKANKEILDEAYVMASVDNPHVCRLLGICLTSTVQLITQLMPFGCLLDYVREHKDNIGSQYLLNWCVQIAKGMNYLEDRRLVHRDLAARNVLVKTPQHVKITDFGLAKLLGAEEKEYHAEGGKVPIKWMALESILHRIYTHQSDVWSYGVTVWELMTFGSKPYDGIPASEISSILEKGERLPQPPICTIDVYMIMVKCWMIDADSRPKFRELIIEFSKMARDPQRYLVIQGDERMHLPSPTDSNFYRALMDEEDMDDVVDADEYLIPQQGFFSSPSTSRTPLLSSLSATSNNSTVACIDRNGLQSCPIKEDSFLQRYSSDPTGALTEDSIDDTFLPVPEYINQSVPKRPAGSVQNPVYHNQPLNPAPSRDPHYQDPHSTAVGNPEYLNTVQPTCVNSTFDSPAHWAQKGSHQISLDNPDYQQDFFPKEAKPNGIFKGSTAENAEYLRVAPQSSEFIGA

Structure (SMILES) | IC50 (CDK2) | inhibition (EGFR)
CCN(CC)CCC(=O)Nc1ccc(Nc2cc(-c3ccccc3OC)ncn2)cc1 | 1000 to 10000 nM | > 80%
COc1ccccc1-c1cc(Nc2ccc(NC(=O)C3(N)CCCC3)cc2)ncn1 | 1000 to 10000 nM | > 80%
COc1ccccc1-c1cc(Nc2ccc(NC(=O)[C@@H](N)c3ccccc3)cc2)ncn1 | 1000 to 10000 nM | 50 to 80%
COc1ccccc1-c1cc(Nc2ccc(NC(=O)c3ccc(N4CCN(C)CC4)cc3)cc2)ncn1 | 1000 to 10000 nM | 50 to 80%
COc1ccccc1-c1cc(Nc2ccc(NC(=O)[C@H]3CCCN3)cc2)ncn1 | 1000 to 10000 nM | > 80%
COc1ccccc1-c1cc(Nc2ccc(N3CCCC3=O)cc2)ncn1 | 1 to 1000 nM | 50 to 80%
